Source: patent publication US9161922B2, “Amine oxidase inhibitors” (Case Western Reserve University, priority 2005, dated 2015)
Where two headings read alike, the source gives them in different places.

Legend:
Format in all cases: biochemical
[1] = molecular target: bovine plasma amine oxidase (BPAO) (Bos taurus (Bovine), UniProt Q29437); assay: Inactivation of bovine plasma amine oxidase (benzylamine oxidation rate, absorbance at 250 nm)
Protocol: The rate of oxidation of benzylamine to benzaldehyde was measured by recording the increase in absorbance at 250 nm for 1 minute and compared to the rate of benzylamine oxidation in a companion control solution of enzyme without inhibitor. The concentration of active BPAO was estimated from the rate of benzylamine oxidation. Inhibitory potency values (IC50 values) and partition values for inactivation of BPAO were measured at various times as in indicated in the Tables. IC50 values for lysyl oxidase (LO), arthrobacter globoformis amine oxidase (AGAO) and pichia pastoris lysyl oxidase (PPLO) were also measured in a similar manner.

[2] = molecular target: lysyl oxidase (LO) (Homo sapiens (Human), UniProt P28300); assay: Lysyl oxidase inhibition; conditions: for IC75: 20 min, assay performed at Boston University; for IC50 (BPAO)/IC75(LO): ratio BPAO over LO
lysyl oxidase (LO), sequence (P28300 169-417, species assumed): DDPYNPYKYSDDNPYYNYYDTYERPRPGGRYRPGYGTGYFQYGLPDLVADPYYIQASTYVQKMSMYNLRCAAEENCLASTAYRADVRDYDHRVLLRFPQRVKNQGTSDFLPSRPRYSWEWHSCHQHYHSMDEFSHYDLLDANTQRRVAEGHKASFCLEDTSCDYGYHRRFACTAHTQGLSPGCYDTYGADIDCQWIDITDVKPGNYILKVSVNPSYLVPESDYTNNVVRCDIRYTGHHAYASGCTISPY
Protocol: (§1) In the following Examples, 0.9 mL aliquots of a solution of candidate inhibitor in 100 mM potassium phosphate buffer, pH 7.2 was mixed bovine plasma amine oxidase (0.1 mL, about […]) and incubated at 30° C. aerobically. Aliquots (0.1 mL) were periodically withdrawn using disposable calibrated Drummond micropipettes and diluted with 1.0 mL of benzylamine (5 mM in 50 mM sodium phosphate buffer, pH 7.2) in a 1 cm quartz cuvette (1.5 mL volume). The rate of oxidation of benzylamine to benzaldehyde was measured by recording the increase in absorbance at 250 nm for 1 minute and compared to the rate of benzylamine oxidation in a companion control solution of enzyme without inhibitor. The concentration of active BPAO was estimated from the rate of benzylamine oxidation. Inhibitory potency values (IC50 values) and partition values for inactivation of BPAO were measured at various times as in indicated in the Tables. IC50 values for lysyl oxidase (LO), arthrobacter globoformis amine oxidase (AGAO) and pichia pastoris lysyl oxidase (PPLO) were also measured in a similar manner.

[3] = molecular target: arthrobacter globiformis amine oxidase (AGAO) (Arthrobacter globiformis, UniProt P46881); assay: Arthrobacter globiformis amine oxidase inhibition
Protocol: as §1

[4] = molecular target: pichia pastoris lysyl oxidase (PPLO) (Komagataella pastoris (Yeast) (Pichia pastoris), UniProt Q96X16); assay: Pichia pastoris lysyl oxidase inhibition; conditions: 30 min
pichia pastoris lysyl oxidase (PPLO), sequence (Q96X16 entry or part of it): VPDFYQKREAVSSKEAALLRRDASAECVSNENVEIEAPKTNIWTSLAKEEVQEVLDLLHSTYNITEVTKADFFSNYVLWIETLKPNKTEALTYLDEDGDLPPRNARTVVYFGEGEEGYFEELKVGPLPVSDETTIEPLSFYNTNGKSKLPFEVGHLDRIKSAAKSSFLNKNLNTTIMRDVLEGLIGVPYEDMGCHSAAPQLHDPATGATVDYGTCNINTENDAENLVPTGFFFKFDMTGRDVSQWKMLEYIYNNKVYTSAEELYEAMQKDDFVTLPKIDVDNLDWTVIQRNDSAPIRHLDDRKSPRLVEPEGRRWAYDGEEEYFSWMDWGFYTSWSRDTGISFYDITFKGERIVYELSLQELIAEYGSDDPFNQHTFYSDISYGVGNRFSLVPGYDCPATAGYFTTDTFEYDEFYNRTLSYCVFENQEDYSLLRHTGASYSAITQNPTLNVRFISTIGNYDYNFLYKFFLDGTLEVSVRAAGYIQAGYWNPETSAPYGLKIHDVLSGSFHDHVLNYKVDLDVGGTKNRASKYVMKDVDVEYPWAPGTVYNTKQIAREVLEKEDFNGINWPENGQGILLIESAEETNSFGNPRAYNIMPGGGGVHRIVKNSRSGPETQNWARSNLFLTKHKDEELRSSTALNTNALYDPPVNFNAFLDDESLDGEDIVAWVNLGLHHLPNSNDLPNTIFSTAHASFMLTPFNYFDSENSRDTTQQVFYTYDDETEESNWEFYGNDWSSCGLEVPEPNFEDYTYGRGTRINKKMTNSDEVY
Protocol: as §1

bovine plasma amine oxidase (BPAO), sequence (Q29437 17-762): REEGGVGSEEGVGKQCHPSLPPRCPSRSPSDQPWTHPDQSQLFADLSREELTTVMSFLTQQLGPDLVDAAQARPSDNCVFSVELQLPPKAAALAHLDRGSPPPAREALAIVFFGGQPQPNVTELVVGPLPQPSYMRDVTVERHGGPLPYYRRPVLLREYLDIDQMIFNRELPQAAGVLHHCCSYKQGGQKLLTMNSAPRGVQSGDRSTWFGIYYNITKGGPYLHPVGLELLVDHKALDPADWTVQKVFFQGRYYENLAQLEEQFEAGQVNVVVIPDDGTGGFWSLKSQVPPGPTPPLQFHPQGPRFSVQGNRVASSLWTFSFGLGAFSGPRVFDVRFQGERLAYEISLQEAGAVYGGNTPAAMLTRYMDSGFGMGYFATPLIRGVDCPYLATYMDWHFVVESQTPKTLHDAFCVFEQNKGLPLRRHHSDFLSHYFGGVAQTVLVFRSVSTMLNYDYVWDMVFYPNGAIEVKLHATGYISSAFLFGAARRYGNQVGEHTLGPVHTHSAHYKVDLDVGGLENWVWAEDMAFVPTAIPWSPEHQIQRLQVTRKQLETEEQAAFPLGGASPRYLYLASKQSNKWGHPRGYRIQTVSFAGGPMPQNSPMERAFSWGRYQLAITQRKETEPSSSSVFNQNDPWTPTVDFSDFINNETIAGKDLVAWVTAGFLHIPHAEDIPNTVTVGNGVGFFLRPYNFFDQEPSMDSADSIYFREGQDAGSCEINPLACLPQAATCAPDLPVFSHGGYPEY

| Structure (SMILES) | IC50 [1] [µM] | IC75 [2] [µM] | IC50 (BPAO)/IC75(LO) [2] | IC50 ([3]; determined on the basis of reversible competitive inhibition, read-out: IC50 (30 min) AGAO) [µM] | IC50 [4] [µM] | IC50 ([3]; 30 min) [µM] |
| --- | --- | --- | --- | --- | --- | --- |
| CCN(CC)C(=O)C(N)CC#CCN (stereo not shown) [R = NEt2] | 10000 | 250 | 40 | 7 | 5000 | – |
| NCC#CCC(N)C(=O)NCCc1ccccc1 (stereo not shown) [R = NHCH2CH2Ph] | 1800 | 450 | 1.11 | – | – | 250 |
| CCOC(=O)CNC(=O)CNC(=O)C(N)CC#CCN (stereo not shown) [R = NHCH2CONHCH2COOEt] | 90 | 650 | 0.14 | – | – | 3500 |
